Data as given in PMC3176295 (Bioorganic & medicinal chemistry, 2011).

Key:
EphE (Rv3670) = EphE (Rv3670) (Mycobacterium tuberculosis, UniProt O69638); test: EphE inhibition, fluorescent assay with Epoxy Fluor 7; assay type: biochemical, M. tuberculosis; details: for inhibition at 0.01 µM: read-out: % EphE Inhibition at 10 nM, inhibitor 10 nM, substrate 5 μM, duplicate; for EphE activity in words: 10 nM; for % EphE Inhibition at 10 nM: inhibitor 10 nM, substrate 5 μM, duplicate
EphB (Rv1938) = EphB (Rv1938) (Mycobacterium tuberculosis, UniProt I6YC03); assay type: biochemical; details: 10 nM
Sequence of EphB (Rv1938) (I6YC03 whole entry): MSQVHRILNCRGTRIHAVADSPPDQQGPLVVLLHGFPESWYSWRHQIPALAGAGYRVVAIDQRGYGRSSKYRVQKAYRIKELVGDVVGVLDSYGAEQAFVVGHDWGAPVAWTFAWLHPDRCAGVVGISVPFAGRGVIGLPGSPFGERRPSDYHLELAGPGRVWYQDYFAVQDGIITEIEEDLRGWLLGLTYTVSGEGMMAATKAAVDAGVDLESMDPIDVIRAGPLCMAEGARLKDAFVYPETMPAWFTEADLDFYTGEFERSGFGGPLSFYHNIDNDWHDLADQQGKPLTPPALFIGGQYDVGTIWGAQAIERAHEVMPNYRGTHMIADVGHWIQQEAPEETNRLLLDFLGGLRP

M. tuberculosis H37Rv = test: MIC determination by microbroth dilution against M. tuberculosis; assay type: cell-based, Mycobacterium tuberculosis; details: for antitubercular activity / MIC in words: M. tuberculosis

Compound | EphE activity in words (EphE (Rv3670)) | EphB inhibition in words (EphB (Rv1938)) | antitubercular activity / MIC in words (M. tuberculosis H37Rv) | further results
O=C(Nc1ccc(F)c(F)c1F)NC1C2CC3CC(C2)CC1C3 (stereo not shown) [Compound 1, 1-(2-Adamantyl)-3-(2,3,4-trifluorophenyl)urea] | – | – | – | inhibition at 0.01 µM (EphE (Rv3670)): > 70%
O=C(NCC12CC3CC(CC(C3)C1)C2)Nc1ccc(F)c(F)c1F [Compound 3, 1-(1-(1-Adamantyl)methyl)-3-(2,3,4-trifluorophenyl)urea] | good EphE activity | relatively poor EphB inhibition | good MIC values | % EphE Inhibition at 10 nM (EphE (Rv3670)): > 70%
N#Cc1ccc(NC(=O)NC2C3CC4CC(C3)CC2C4)cc1 (stereo not shown) [Compound 10, 1-(2-Adamantyl)-3-(4-cyanophenyl)urea] | good EphE activity | relatively poor EphB inhibition | good MIC values | –
O=C(NCCc1ccccc1)NC1C2CC3CC(C2)CC1C3 (stereo not shown) [Compound 11, 1-(2-Adamantyl)-3-phenethylurea] | good EphE activity | relatively poor EphB inhibition | good MIC values | inhibition at 0.01 µM (EphE (Rv3670)): > 70%
CCCCCCNC(=O)NC1C2CC3CC(C2)CC1C3 (stereo not shown) [Compound 20, 1-(2-Adamantyl)-3-hexylurea] | good EphE activity | relatively poor EphB inhibition | good MIC values | % EphE Inhibition at 10 nM (EphE (Rv3670)): > 70%
Cc1ccc(NC(=O)NCC23CC4CC(CC(C4)C2)C3)cc1Cl [Compound 22, 1-(1-(1-Adamantyl)methyl)-3-(3-chloro-4-methylphenyl)urea] | good EphE activity | relatively poor EphB inhibition | good MIC values | –
Cc1ccc(NC(=O)NC2CCCCCCC2)cc1Cl [Compound 24, 1-(3-Chloro-4-methylphenyl)-3-cyclooctylurea] | – | – | – | % EphE Inhibition at 10 nM (EphE (Rv3670)): > 70%
Fc1ccc(NC(=S)NC2C3CC4CC(C3)CC2C4)c(F)c1F (stereo not shown) [Compound 31, 1-(2-Adamantyl)-3-(2,3,4-trifluorophenyl)thiourea] | – | – | – | fold decrease in MIC activity (M. tuberculosis H37Rv; thiourea versus urea 1): 80 fold
O=C(Nc1ccc(F)c(F)c1F)OC1C2CC3CC(C2)CC1C3 (stereo not shown) [Compound 32, 2-Adamantyl 2,3,4-trifluorophenylcarbamate] | – | – | – | additional fold decrease in anti-M. tuberculosis potency (M. tuberculosis H37Rv; carbamate, additional to the decrease of thiourea 31): 10 fold
COc1ccc(NC(=O)NC2C3CC4CC(C3)CC2C4)cc1 (stereo not shown) [Compound 35, 1-(2-Adamantyl)-3-(4-methoxyphenyl)urea] | – | – | good antitubercular activity | –
COC(=O)c1ccc(NC(=O)NC23CC4CC(CC(C4)C2)C3)cc1O [Compound 36, Methyl 4-(3-(1-adamantyl)ureido)-2-hydroxybenzoate] | – | – | good antitubercular activity | –
CC(C)CCOc1ccc(NC(=O)Nc2ccc(OCCC(C)C)cc2)cc1 [Compound 41, 1,3-Bis(4-(isopentyloxy)phenyl)urea] | – | – | inactive | –
